Test results published in article PMC5378356, “Differential inhibition of activity, activation and gene expression of MMP-9 in THP-1 cells by azithromycin and minocycline versus bortezomib: A comparative study” (PLoS ONE, 2017).

Molecular target: T1, matrix metalloproteinase-9 (MMP-9, gelatinase B) (Homo sapiens, UniProt P14780)
T1 construct: gene MMP9
Assay: fluorogenic DQ-gelatin degradation assay with active MMP-9; also gelatin zymography with compound in the incubation buffer
Type: biochemical

T1 sequence (P14780 107-707): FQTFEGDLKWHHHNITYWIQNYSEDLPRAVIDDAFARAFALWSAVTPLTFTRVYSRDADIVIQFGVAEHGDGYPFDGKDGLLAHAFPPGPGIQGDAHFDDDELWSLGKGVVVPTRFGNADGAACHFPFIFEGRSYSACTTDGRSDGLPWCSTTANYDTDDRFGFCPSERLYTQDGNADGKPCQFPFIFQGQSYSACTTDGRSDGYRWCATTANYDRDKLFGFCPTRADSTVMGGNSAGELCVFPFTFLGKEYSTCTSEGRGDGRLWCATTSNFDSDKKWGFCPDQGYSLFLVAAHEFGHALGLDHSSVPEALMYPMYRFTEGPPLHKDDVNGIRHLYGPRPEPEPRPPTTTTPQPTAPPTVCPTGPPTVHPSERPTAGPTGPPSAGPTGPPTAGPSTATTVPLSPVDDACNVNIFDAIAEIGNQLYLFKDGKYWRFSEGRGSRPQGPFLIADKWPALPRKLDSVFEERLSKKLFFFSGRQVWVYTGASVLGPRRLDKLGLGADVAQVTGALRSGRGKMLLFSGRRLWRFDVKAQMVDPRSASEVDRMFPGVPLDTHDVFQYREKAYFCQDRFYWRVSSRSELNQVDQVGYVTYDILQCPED

With `CN(C)c1ccc(O)c2c1C[C@H]1C[C@H]3[C@H](N(C)C)C(O)=C(C(N)=O)C(=O)[C@@]3(O)C(O)=C1C2=O` [minocycline] as the compound, how does the IC50 read?
Its IC50 is 272 µM.
